Tests used:
[1] = biological target: T1, Orexin receptor type 2 (Homo sapiens, UniProt O43614); test: Antagonist activity at human OX2R expressed in CHO cells assessed as reduction in [Ala6,12]orexin-A-induced intracellular Ca2+ mobilization incubated for 30 mins by Fluo-4AM dye based fluorescence assay; assay type: functional, cell-based
T1 sequence (O43614 whole entry): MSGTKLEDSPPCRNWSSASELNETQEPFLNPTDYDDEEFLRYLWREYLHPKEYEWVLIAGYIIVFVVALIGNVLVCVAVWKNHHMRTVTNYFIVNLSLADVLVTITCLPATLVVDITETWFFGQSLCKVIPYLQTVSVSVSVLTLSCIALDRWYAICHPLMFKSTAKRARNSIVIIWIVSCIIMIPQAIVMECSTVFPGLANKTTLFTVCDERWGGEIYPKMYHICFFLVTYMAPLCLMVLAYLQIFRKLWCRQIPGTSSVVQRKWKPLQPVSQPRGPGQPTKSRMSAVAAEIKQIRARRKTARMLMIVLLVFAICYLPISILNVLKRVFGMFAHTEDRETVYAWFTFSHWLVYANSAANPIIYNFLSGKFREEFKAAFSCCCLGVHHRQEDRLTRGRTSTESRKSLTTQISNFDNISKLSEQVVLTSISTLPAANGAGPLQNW

[2] = species: Homo sapiens; test: Selectivity index, ratio of IC50 for human OX2R expressed in CHO cells to IC50 for human OX1R expressed in CHO cells; assay type: cell-based
[3] = biological target: T2, Orexin/Hypocretin receptor type 1 (Homo sapiens, UniProt O43613); test: Antagonist activity at human OX1R expressed in CHO cells assessed as reduction in [Ala6,12]orexin-A-induced intracellular Ca2+ mobilization incubated for 30 mins by Fluo-4AM dye based fluorescence assay; assay type: functional, cell-based
T2 sequence (O43613 whole entry): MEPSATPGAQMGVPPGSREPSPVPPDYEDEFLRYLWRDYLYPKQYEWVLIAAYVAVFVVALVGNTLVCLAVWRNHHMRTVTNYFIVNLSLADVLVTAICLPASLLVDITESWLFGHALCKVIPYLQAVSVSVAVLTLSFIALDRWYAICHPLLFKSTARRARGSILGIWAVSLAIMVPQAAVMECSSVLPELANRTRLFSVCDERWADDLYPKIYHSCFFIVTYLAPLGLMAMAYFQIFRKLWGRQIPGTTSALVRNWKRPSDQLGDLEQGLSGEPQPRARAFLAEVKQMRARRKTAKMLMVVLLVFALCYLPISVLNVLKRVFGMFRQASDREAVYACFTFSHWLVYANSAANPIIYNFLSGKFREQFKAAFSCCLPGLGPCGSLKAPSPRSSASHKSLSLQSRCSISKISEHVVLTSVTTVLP

[4] = species: Homo sapiens; test: Selectivity index, ratio of IC50 for OX2R expressed in CHO cells to IC50 for human OX1R expressed in CHO cells; assay type: cell-based

Row | Compound | IC50 [1] | IC50 [3] | Ratio IC50 [2] | Ratio IC50 [4]
1 | CCN(C(=O)c1cc(C)ccc1-c1ncccn1)[C@@H](C)Cc1noc(-c2ccc(F)cc2)n1 | 8.85 nM |  | 6.3 | 
2 | Cc1ccc(-n2nccn2)c(C(=O)NCCn2cc(-c3ccc(F)cn3)cn2)c1 |  | 908 nM |  | 
3 | Cc1ccc(-n2nccn2)c(C(=O)N[C@@H](C)Cn2cc(-c3ccc(F)cn3)cn2)c1 | 840 nM | 245 nM | 3.4 | 
4 | CCN(C(=O)c1cc(C)ccc1-n1nccn1)[C@@H](C)Cn1cc(-c2ccc(F)cn2)nn1 | 22.8 nM | 1.93 nM | 12 | 
5 | Cc1ccc(-n2nccn2)c(C(=O)N(C)[C@@H](C)Cn2ccc(-c3ccc(F)cn3)n2)c1 | 5.68 nM | 1.9 nM | 3 | 
6 | CCN(C(=O)c1cc(F)ccc1-n1nccn1)[C@@H](C)Cc1noc(-c2ccc(F)cc2)n1 | 23.6 nM | 1.26 nM | 19 | 
7 | CCN(C(=O)c1cc(F)ccc1-n1nccn1)[C@@H](C)Cc1noc(-c2ccc(F)cn2)n1 | 887 nM | 14.7 nM | 60 | 
8 | CCN(C(=O)c1ccccc1-n1nccn1)[C@@H](C)Cn1nnc(-c2ccc(F)cc2)n1 | 61 nM | 2.45 nM | 25 | 
9 | Cc1ccc(-n2nccn2)c(C(=O)N(C)[C@H](Cn2ccc(-c3ccc(F)cn3)n2)C(C)C)c1 | 952 nM | 61.5 nM | 16 | 
10 | CCN(C(=O)c1cc(C)ccc1-n1nccn1)[C@@H](C)Cn1ccc(-c2ccc(F)cn2)n1 | 1.61 nM | 1.62 nM | 1 | 
11 | CCN(C(=O)c1cc(C)ccc1-n1nccn1)[C@H](C)Cn1ccc(-c2ccc(F)cn2)n1 | 250 nM | 86.6 nM | 2.9 | 
12 | Cc1nc2ccc(NC(=O)Nc3ccnc4cccnc34)cc2o1 |  |  |  | 50
13 | CCN(C(=O)c1nc(C)ccc1-n1nccn1)[C@@H](C)Cc1noc(-c2ccc(F)cc2)n1 | 40.5 nM | 1.82 nM | 22 | 
14 | CCN(C(=O)c1cc(F)ccc1-c1ncccn1)[C@@H](C)Cc1noc(-c2ccc(F)cc2)n1 | 80.1 nM | 1.58 nM | 51 | 
15 | CCN(C(=O)c1cc(C)ccc1-n1nccn1)[C@@H](C)Cn1nnc(-c2ccc(F)cn2)n1 | 17.9 nM | 1.1 nM | 16 | 
16 | CCN(C(=O)c1ccccc1-n1nccn1)[C@@H](C)Cc1noc(-c2ccc(F)cc2)n1 | 11.6 nM | 1.25 nM | 9.3 | 

Continued, in another order:

Row | IC50 [1] | IC50 [3] | Compound | Ratio IC50 [2] | Ratio IC50 [4]
17 | 36 nM | 1.81 nM | CCN(C(=O)c1cc(C)ccc1-c1ncccn1)[C@@H](C)Cn1nnc(-c2ccc(F)cc2)n1 | 20 | 
18 | 139 nM | 3.06 nM | CCN(C(=O)c1cc(F)ccc1-n1nccn1)[C@@H](C)Cn1nnc(-c2ccc(F)cc2)n1 | 45 | 
19 | 58.4 nM | 10.1 nM | Cc1ccc(-n2nccn2)c(C(=O)N[C@@H](C)Cn2ccc(-c3ccc(F)cn3)n2)c1 | 5.8 | 
20 | 43.2 nM | 3.24 nM | CCN(C(=O)c1cc(C)ccc1-c1ncccn1)[C@@H](C)Cc1noc(-c2ccc(F)cn2)n1 | 13 | 
21 | 119 nM | 1.84 nM | CCN(C(=O)c1nc(C)ccc1-n1nccn1)[C@@H](C)Cn1nnc(-c2ccc(F)cc2)n1 | 65 | 
22 | 2.81 nM | 3.22 nM | CCN(CCn1ccc(-c2ccc(F)cn2)n1)C(=O)c1cc(C)ccc1-n1nccn1 | 0.87 | 
23 | 29 nM | 4.39 nM | CC[C@@H](Cn1ccc(-c2ccc(F)cn2)n1)N(C)C(=O)c1cc(C)ccc1-n1nccn1 | 6.6 | 
24 | 5.87 nM | 0.767 nM | CCN(C(=O)c1cc(C)ccc1-n1nccn1)[C@@H](C)Cn1cc(-c2ccc(F)cn2)cn1 | 7.7 | 
25 | 11.9 nM |  | Cc1ccc(-n2nccn2)c(C(=O)N(C)CCn2ccc(-c3ccc(F)cn3)n2)c1 | 2.1 | 
26 | 51.7 nM | 56.1 nM | Cc1ccc(-n2nccn2)c(C(=O)N(C)CCn2cc(-c3ccc(F)cn3)cn2)c1 | 0.92 | 
27 | 129 nM | 10.6 nM | CCN(C(=O)c1cc(C)ccc1-c1ncccn1)[C@@H](C)Cn1nnc(-c2ccc(F)cn2)n1 | 12 | 
28 | 2.73 nM | 1.07 nM | CCN(C(=O)c1cc(C)ccc1-n1nccn1)[C@@H](C)Cc1noc(-c2ccc(F)cc2)n1 | 2.6 | 
29 | 198 nM | 119 nM | Cc1ccc(-n2nccn2)c(C(=O)NCCn2ccc(-c3ccc(F)cn3)n2)c1 | 1.7 | 
30 | 2.57 nM | 0.82 nM | CCN(C(=O)c1cc(C)ccc1-n1nccn1)[C@@H](C)Cn1nnc(-c2ccc(F)cc2)n1 | 3.1 | 
31 | 11.3 nM | 1.26 nM | CCN(C(=O)c1cc(C)ccc1-n1nccn1)[C@@H](C)Cc1noc(-c2ccc(F)cn2)n1 | 9 | 
32 | 14.2 nM | 9.06 nM | CCN(CCn1cc(-c2ccc(F)cn2)cn1)C(=O)c1cc(C)ccc1-n1nccn1 | 1.6 | 
33 | 471 nM | 9.45 nM | CCN(C(=O)c1cc(F)ccc1-n1nccn1)[C@@H](C)Cn1nnc(-c2ccc(F)cn2)n1 | 50 | 
34 | 21.2 nM | 4.39 nM | Cc1ccc(-n2nccn2)c(C(=O)N(C)[C@@H](C)Cn2cc(-c3ccc(F)cn3)cn2)c1 | 4.8 | 
35 | 254 nM | 3.58 nM | CCN(C(=O)c1nc(C)ccc1-c1ncccn1)[C@@H](C)Cc1noc(-c2ccc(F)cc2)n1 | 71 | 

Source: ChEMBL document CHEMBL4043177 (Bioorg Med Chem, 2017)
